Test results as given in paper PMC7140522, “The Pyrazolo[3,4-d]pyrimidine Derivative, SCO-201, Reverses Multidrug Resistance Mediated by ABCG2/BCRP” (Cells, 2020).

How the values were obtained:
BCRP [1] = molecular target: T1, BCRP (Homo sapiens, UniProt Q9UNQ0); assay: […] ATPase assay with recombinant BCRP membranes; type: biochemical; parameters: purchased Solvo Biotechnology (via Sigma-Aldrich/Merck) SB-BCRP-M
T1 sequence (Q9UNQ0 1-655): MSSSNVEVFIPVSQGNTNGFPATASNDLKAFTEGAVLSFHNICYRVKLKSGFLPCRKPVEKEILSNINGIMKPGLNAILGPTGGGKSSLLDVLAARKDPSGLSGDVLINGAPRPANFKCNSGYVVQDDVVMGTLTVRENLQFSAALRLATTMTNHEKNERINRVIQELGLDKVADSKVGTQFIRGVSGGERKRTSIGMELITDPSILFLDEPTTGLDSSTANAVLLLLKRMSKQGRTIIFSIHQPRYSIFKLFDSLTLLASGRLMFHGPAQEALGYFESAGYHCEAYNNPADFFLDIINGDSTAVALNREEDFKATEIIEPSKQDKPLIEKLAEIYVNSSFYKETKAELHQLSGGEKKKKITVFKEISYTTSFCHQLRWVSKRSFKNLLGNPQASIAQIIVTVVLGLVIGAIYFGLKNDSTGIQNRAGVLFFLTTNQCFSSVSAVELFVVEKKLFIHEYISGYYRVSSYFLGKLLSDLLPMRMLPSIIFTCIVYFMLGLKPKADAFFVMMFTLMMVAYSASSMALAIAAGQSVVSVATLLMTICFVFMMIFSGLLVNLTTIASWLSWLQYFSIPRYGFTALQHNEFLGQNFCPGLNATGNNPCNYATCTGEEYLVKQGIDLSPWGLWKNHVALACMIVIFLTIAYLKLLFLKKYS
Procedure: After incubation with test compounds, MgATP was added to each well and incubated at 37 °C for 10 min. The ATPase reaction was stopped by the addition of 1x Developer solution at room temperature (RT). Two minutes after, 100 µL Blocker solution was added and the plate was incubated for 30 min at 37 °C for 30 min. The optical densities were measured at 620 nm using a PowerWave X Microplate spectrophotometer (BioTek, Bad Friedrichshall, Germany).

BCRP [2] = molecular target: T1, BCRP; assay: Cellular dye efflux assay (Hoechst 33342) in HT29SN-38-RES cells; type: cell-based; parameters: endogenous in cells; host or cells: HT29 SN-38-RES (drug-selected HT29)
BCRP [3] = molecular target: T1, BCRP; assay: Fluorometric transporter inhibition, BCRP-CHO; type: in vitro ADME; details: Hoechst 33342 substrate
Procedure: Cells were seeded in a 96-well plate (20,000 cells/well) and used on days 2 or 3 post-seeding. […] Subsequently, substrate was added to the plate followed by 20 min incubation at 37 °C. The plate was then washed with cold assay buffer followed by fluorescence reading on a plate reader. The tested transporters, cell lines, substrates, and reference inhibitors are shown in the Supplementary Materials (Tables S1 and S2).
110 Table S1. […]
120 transporters (P-gp and BCRP), increased fluorescence signal represents inhibition of the transporter activity.
The IC50 values are shown for the analysed transporters with […]

ATPase activity of BCRP, sulfasalazine-stimulated (BCRP [1]; SCO-201 added to sulfasalazine-stimulated BCRP): decreased in a dose-dependent manner | ATPase activity of BCRP, basal (BCRP [1]; in the absence of sulfasalazine): decreased dose-dependently | SN-38-stimulated ATPase activity of BCRP (BCRP [1]; in the presence of 0.5 µM or 1.5 µM SCO-201): shifted downwards | IC50 (BCRP [2]; imaging cytometry, read-out: IC50, accumulation of Hoechst dye): 0.45 µM | IC50 (BCRP [3]): 1.7 µM
SMILES: Nc1nc(-c2ccccc2)nc2[nH]nc(Nc3ccc(C(F)(F)F)cc3)c12 [SCO-201]
Hoechst accumulation in resistant cells (BCRP [2]; fluorescence microscopy and imaging cytometry): accumulated to the level of the parental control cells
